{"source": "patent US20190112357A1", "about": "“PREVENTION OF PROTEIN DISULFIDE BOND REDUCTION” (MedImmune, LLC, priority 2016, published 2019)", "key": {"[1]": {"test_system": "TrxR1 purified from a day 14 culture of cell line B", "assay": "DTNB reductase activity of 2'5'-ADP column fractions from cell line B, TrxR1", "type": "biochemical, Chinese Hamster", "settings": "0.5 μM ATG, fractions B1-C2, depending on the fraction", "experimental": "Reductases were purified from cell samples to verify the specificity of reductase inhibitors. A day 14 culture of mAb B (IgG antibody produced by CHO cell line B CHO-K1SV) was pelleted by centrifugation, washed once with PBS and re-suspended in 50 mM tris buffer, pH 7.5. The solution was homogenized and filtered at 0.2 μm prior to loading onto a column of 2′5′-ADP Sepharose 4B resin. The reductases were eluted using a linearly increasing gradient of 0 to 0.3 mM NADP^+ in the same tris buffer (Yadav, et al., Parasitol. Int., 62:193-198, 2013). The reductase activity of the collected fractions was determined using the assay described in Example 3. Additionally, western blot analysis was used to detect TrxR1 and GR in the collected fractions.\nThe reductase-specific inhibitors were evaluated above using purified recombinant mammalian enzymes from rat and human. […] The added activity from the two systems was approximately equal to the total activity detected in the absence of an inhibitor for each fraction. […] That is, if the reductase inhibitors were non-specifically inhibiting both enzymatic systems, the added reductase activity would have been […] than the reductase activity detected without any added inhibitor. […] The fractions with reductase activity were pooled and further evaluated at the inhibitor concentrations assayed in the antibody reduction assay."}, "[2]": {"test_system": "GR isolated from CHO cell culture", "assay": "mAb B reduction by pooled CHO fractions with NADPH and GSSG", "type": "biochemical, Chinese Hamster", "settings": "3 μM Cu^2+ or 100 μM ATG, overnight room temperature", "experimental": "Purified mAb B was spiked into several solutions containing different combinations of the pooled fractions (PF), recombinant Trx1, GSSG, NADPH, ATG, and Cu^2+. The solutions were incubated at room temperature overnight and the amount of intact antibody remaining was determined by capillary electrophoresis according to the protocol described above. In the first set of samples, purified mAb B was spiked into the pooled fractions with, and without, NADPH.\nIn the second set of samples, purified mAb B was spiked into solutions containing the pooled enzymes, NADPH, GSSG, and either no inhibitor, 3 μM Cu^2+, or 100 μM ATG. […] This solution contained GR, GSSG, and NADPH, which are needed for the glutathione system."}, "[3]": {"biological_target": "T1, recombinant mammalian TrxR1/Trx1 (Rattus norvegicus, UniProt O89049)", "T1 construct": "purchased Cayman Chemical (TrxR1); Abcam (Trx1)", "T1 sequence (O89049 1-499)": "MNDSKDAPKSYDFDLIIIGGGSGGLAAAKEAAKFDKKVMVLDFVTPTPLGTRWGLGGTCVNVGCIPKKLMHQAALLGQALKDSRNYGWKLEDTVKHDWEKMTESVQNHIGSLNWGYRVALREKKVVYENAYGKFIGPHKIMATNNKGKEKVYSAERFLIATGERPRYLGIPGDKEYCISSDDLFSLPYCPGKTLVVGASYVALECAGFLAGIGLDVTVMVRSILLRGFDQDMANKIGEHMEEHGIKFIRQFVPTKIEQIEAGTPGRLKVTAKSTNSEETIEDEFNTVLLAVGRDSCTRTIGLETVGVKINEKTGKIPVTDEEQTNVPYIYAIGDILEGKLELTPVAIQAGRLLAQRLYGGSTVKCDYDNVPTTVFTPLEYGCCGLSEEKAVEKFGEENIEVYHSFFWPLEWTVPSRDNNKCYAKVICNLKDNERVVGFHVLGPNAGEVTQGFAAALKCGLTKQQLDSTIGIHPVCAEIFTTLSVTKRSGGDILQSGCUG", "assay": "Reduction of purified mAb B by recombinant TrxR1/Trx1, capillary electrophoresis", "type": "biochemical, human (Trx1)", "settings": "0.1 mM ATG, purified mAb B, overnight, oxygen-free", "experimental": "Antibody reduction in cell culture supernatant samples was measured by detecting the presence of reduced species via capillary electrophoresis using standard procedures on a 2100 Bioanalyzer system (Agilent Technologies, Santa Clara, Calif.). Samples were diluted 1-6 fold depending on titer and analyzed under non-reducing conditions following 2100 Bioanalyzer standard protocols. Supernatant samples from 3 L bioreactors were stored frozen until all samples had been acquired and were ready for analysis. Samples were thawed on ice and analyzed immediately to evaluate the amount of reduced antibody in the reactor on each day of the run.\nThe role of each enzymatic system in antibody reduction was evaluated by determining the conditions under which these reductase systems cause antibody reduction. Using purified recombinant mammalian reductases, the thioredoxin system was evaluated by spiking purified mAb B into five solutions containing: 1) no enzymes, 2) 1 μM TrxR1, 3) 0.1 μM TrxR1, 4) […], and 5) 0.1 μM TrxR1+2.5 μM Trx1. All samples contained 0.4 mM NADPH and were stored at room temperature overnight. Digital gel-like images were obtained from microchip-based capillary electrophoresis analysis.\nTo confirm that the activity from a particular reductase system can translate into reduced antibody, a second method was developed to determine the impact of each reductase system on antibody reduction. The principle of the reduction assay is similar to the reductase activity assay described above. The percent of protein reduction without an inhibitor was compared to the percent of protein reduction in the presence of specific inhibitors for GR or TrxR1. In this assay, purified mAb B was spiked into solutions containing recombinant mammalian TrxR1/Trx1 or recombinant mammalian GR/GSSG and stored in an oxygen-free environment overnight. The percent of reduced mAb B antibody was evaluated using capillary electrophoresis, as set forth above."}, "thioredoxin system": {"test_system": "thioredoxin system", "assay": "Reductase activity assay, day 14 culture samples, thioredoxin system", "type": "biochemical, Chinese Hamster", "settings": "day 14, 0.5 μM ATG", "experimental": "The total reductase activity was determined in the absence of any inhibitor. […] Thus, the difference in activity between a sample with ATG, and a sample without any inhibitor, indicates the amount of reductase activity contributed the thioredoxin system. […] Thus, the difference in reductase activity between a sample with 2-AAPA, and a sample without any inhibitor, indicates the amount of reductase activity contributed by the glutathione system. Although ATG and 2-AAPA are provided as exemplary specific inhibitors, other specific inhibitors discussed above can be employed in this assay instead of ATG and 2-AAPA.\nBriefly, culture samples were thawed on ice. […] The samples were then allowed to incubate 5 minutes.\nActivity of the reductases was calculated as follows. […] The activity was then calculated by the following equation: […]\nThe reductase activities of the thioredoxin and glutathione systems were evaluated in day 14 culture samples of the same CHO cell lines A, B, C, and D, using the previously evaluated specific inhibitors 2-AAPA and ATG at 100 μM and 0.5 μM respectively. Data in FIG. 6A were normalized to viable cell density. Cell lines A, B, and C were described in Example 6, above. Cell line D is the cell line CHO CAT-S, and is stably transfected to produce an IgG1 mAb (mAb D)."}}}
{"smiles": "OC[C@H]1O[C@H]([S-])[C@H](O)[C@@H](O)[C@@H]1O.[Au+]", "note": "[ATG, aurothioglucose]", "values": [{"measurement": "share of reductase activity from TrxR1, determined with the inhibitor", "setting": "[1]", "result": "60-75%"}, {"measurement": "antibody reduction in pooled enzymes, NADPH, GSSG", "setting": "[2]", "result": "did not inhibit antibody reduction"}, {"measurement": "antibody reduction in sample containing TrxR1/Trx1", "setting": "[3]", "result": "complete inhibition of antibody reduction"}, {"measurement": "share of total reductase activity from the thioredoxin system", "setting": "thioredoxin system; cell line A", "result": 35, "unit": "%"}, {"measurement": "share of total reductase activity from the thioredoxin system", "setting": "thioredoxin system; cell line B", "result": 60, "unit": "%"}, {"measurement": "share of total reductase activity from the thioredoxin system", "setting": "thioredoxin system; cell line C", "result": 87, "unit": "%"}, {"measurement": "share of total reductase activity from the thioredoxin system", "setting": "thioredoxin system; cell line D", "result": 60, "unit": "%"}]}
